What was measured:
BTK = BTK (Homo sapiens, UniProt Q06187); assay: BTK remaining in TMD8 WT mouse xenograft study; assay type: in vivo; design: from tissue; host or cells: TMD8 xenograft in CB.17 SCID mice; details: IP, QD
Source text: Efficacy in Mouse Xenograft Models
(§1) This example examines the activity of various BTK CTMs in relevant disease models, including the WT and C481S TMD8 model, which models B cell malignancies with/without inhibitor-driven BTK mutations at C481.

TMD8 tumor cells = assay: TMD8 xenograft efficacy study (wild-type BTK); assay type: in vivo, mouse; details: TMD8 WT, IP, QD
Protocol: […] Tumor growth inhibition (% TGI) were calculated on the final day of measurement using the equation [1−(T−T0/C−T0)]×100, where T and C represent the mean size of tumors in the treated (T) and control (C) groups, and T0 refers to the tumor size at randomization.
as §1

primary human T cells [1] = assay: T cell activation assay, IL-2 secretion (ELISA); assay type: cell-based
Protocol: (§2) This example evaluates whether CTMs with IMiD activity affect T cell activation. […] These assays were performed to assess whether BTK CTMs with and without IMiD activity affected activation of primary human T cells after stimulation of the T cell receptor with anti-CD3/ati-CD28 stimulation. T cell activation was measured by IL-2 secretion (ELISA assay) and upregulation of activation markers CD25 and CD69 on the surface of T cells (flow cytometry). Data are presented as the fold-change of response relative to baseline (stimulation with anti-CD3/anti-CD28 stimulation in the absence of compound).

TMD8 cells = assay: Cell viability assay (CellTiter-Glo), TMD8 cells
TMD8 C481S cells = assay: Cell viability assay (CellTiter-Glo), TMD8 C481S cells
primary human T cells [2] = assay: T cell activation assay, CD25 and CD69 staining (flow cytometry); assay type: cell-based; details: for CD25 Staining Anti-CD3/Anti-CD28 Stimulation / CD69 Staining Anti-CD3/Anti-CD28 Stimulation: fold-change of response relative to baseline
Protocol: as §2

Aiolos = biological target: T1, Aiolos (Homo sapiens, UniProt Q96SW2+Q9UKT9); assay: Aiolos degradation in Mantle Cell Lymphoma lines (flow cytometry); assay type: cell-based; details: treatment time 24 h
T1 construct: endogenous in cells; host or cells: Mino, Rec-1
T1 sequence (Q9UKT9 whole entry): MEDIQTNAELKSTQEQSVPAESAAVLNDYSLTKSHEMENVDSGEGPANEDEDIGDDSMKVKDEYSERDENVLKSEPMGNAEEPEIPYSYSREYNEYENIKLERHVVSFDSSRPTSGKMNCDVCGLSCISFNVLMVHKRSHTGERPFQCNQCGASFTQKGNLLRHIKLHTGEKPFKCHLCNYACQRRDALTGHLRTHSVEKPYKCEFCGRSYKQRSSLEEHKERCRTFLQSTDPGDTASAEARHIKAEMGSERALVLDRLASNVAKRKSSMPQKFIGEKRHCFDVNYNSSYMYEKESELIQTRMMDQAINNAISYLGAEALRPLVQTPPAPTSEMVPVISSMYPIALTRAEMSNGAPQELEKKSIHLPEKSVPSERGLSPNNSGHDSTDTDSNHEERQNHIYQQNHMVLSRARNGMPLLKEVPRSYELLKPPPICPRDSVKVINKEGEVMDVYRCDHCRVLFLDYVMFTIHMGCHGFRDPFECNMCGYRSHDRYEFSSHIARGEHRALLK
T1 sequence (Q96SW2 whole entry): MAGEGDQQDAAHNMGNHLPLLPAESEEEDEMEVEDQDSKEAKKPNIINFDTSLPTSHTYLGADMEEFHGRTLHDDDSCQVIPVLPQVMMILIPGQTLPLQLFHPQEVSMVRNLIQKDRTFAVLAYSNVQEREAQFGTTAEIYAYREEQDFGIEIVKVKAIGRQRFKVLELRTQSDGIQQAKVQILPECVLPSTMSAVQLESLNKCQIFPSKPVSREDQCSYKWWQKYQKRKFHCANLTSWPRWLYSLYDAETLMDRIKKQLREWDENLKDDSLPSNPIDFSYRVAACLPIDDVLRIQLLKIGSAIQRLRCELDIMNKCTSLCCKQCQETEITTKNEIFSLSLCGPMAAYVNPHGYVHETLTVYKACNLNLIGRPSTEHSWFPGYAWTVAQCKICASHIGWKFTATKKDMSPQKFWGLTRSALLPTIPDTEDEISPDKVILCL
T1 sequence (Q16531 whole entry partner): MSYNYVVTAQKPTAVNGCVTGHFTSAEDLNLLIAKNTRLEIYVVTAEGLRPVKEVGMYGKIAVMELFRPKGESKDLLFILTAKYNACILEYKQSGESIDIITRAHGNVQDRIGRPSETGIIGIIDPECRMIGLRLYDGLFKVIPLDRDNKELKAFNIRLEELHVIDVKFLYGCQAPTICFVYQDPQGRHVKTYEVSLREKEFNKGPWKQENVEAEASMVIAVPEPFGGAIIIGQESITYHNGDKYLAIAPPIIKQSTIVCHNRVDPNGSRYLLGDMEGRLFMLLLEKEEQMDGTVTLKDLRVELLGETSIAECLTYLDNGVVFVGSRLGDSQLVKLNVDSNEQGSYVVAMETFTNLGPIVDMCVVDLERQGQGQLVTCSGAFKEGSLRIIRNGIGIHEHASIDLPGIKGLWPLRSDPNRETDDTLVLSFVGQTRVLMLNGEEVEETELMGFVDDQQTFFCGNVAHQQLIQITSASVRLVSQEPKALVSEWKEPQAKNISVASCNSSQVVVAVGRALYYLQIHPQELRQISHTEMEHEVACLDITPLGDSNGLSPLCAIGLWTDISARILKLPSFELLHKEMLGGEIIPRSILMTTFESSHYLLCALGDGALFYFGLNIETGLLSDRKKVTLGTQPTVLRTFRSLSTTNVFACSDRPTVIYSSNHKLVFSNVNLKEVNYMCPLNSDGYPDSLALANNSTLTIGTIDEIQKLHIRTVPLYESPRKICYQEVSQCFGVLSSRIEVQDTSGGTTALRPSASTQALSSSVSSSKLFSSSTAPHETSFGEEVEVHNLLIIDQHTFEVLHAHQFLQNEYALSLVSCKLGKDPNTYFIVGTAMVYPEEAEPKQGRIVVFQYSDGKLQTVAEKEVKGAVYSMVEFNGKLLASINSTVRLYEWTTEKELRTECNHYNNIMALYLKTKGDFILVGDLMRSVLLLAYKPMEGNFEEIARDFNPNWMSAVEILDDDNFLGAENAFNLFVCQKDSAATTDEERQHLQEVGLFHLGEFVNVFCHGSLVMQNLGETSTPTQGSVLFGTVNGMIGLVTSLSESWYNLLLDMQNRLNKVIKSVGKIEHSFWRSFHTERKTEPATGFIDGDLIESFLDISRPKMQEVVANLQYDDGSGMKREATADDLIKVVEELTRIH
Source text: (§3) Ikaros and Aiolos Degradation in Mantle Cell Lymphoma Lines (Ikaros and Aiolos Flow Cytometry)
(§4) This example evaluates the IMiD activity of CTMs in cellular models of Mantle Cell Lymphoma (MCL). […] These assays are to determine potency of CTMs for degrading IMiD neo-substrates in cellular models of MCL and to generate data to inform efficacy studies in MCL xenografts.

Ikaros = biological target: T2, Ikaros (Homo sapiens, UniProt Q13422+Q96SW2); assay: Ikaros degradation in Mantle Cell Lymphoma lines (flow cytometry); assay type: cell-based; details: treatment time 24 h
T2 construct: endogenous in cells; host or cells: Mino, Rec-1
T2 sequence (Q13422 whole entry): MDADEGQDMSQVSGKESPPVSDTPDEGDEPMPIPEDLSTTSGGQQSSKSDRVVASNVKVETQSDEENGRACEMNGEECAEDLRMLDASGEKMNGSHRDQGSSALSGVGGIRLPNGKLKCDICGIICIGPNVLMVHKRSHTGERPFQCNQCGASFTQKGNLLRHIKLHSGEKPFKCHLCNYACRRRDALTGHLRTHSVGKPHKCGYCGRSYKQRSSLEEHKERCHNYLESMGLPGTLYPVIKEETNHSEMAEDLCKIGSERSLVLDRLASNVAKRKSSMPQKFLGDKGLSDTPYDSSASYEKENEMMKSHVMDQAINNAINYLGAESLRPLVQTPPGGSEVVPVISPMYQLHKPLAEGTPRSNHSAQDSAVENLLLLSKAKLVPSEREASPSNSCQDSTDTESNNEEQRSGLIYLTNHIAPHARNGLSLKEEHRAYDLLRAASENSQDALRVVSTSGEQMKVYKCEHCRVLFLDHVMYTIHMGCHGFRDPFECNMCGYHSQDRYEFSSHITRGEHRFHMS
T2 sequence (Q96SW2 whole entry): as the sequence (Q96SW2 whole entry) above
T2 sequence (Q16531 whole entry partner): as the sequence (Q16531 whole entry partner) above
Source text: as §3, §4

[3] = 1.4 nM, fold-change of response relative to baseline
[4] = 37 nM, fold-change of response relative to baseline
[5] = 333 nM, fold-change of response relative to baseline (stimulation without compound)

Chain of BTK (Q06187 whole entry): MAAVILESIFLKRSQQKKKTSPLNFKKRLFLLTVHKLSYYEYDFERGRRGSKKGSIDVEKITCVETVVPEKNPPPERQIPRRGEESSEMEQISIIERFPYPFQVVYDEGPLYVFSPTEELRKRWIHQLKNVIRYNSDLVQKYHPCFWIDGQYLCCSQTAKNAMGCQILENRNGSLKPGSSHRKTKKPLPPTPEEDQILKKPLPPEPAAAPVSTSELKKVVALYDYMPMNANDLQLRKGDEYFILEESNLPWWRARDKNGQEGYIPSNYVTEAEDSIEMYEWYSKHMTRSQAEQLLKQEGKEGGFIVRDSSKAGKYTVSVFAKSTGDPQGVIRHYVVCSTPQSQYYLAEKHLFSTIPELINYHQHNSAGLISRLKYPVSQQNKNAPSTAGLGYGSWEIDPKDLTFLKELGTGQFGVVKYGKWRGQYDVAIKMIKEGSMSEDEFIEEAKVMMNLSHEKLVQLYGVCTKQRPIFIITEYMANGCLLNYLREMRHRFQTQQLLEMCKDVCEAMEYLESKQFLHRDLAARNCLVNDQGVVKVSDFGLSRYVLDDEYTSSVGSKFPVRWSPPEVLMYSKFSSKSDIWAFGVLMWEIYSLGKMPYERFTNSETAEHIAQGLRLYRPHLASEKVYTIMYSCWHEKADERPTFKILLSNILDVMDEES

SMILES | IL-2 Secretion Anti-CD3/Anti-CD28 Stimulation (primary human T cells [1]; [3]) | IL-2 Secretion Anti-CD3/Anti-CD28 Stimulation (primary human T cells [1]; [4]) | IL-2 Secretion Anti-CD3/Anti-CD28 Stimulation (primary human T cells [1]; [5]) | CD25 Staining Anti-CD3/Anti-CD28 Stimulation (primary human T cells [2]; 1.4 nM) | CD69 Staining Anti-CD3/Anti-CD28 Stimulation (primary human T cells [2]; 1.4 nM) | CD25 Staining Anti-CD3/Anti-CD28 Stimulation (primary human T cells [2]; 37 nM) | CD69 Staining Anti-CD3/Anti-CD28 Stimulation (primary human T cells [2]; 37 nM) | CD25 Staining Anti-CD3/Anti-CD28 Stimulation (primary human T cells [2]; 333 nM) | CD69 Staining Anti-CD3/Anti-CD28 Stimulation (primary human T cells [2]; 333 nM) | also measured
CN1CCN([C@@H]2CCCN(c3cnc(C(N)=O)c(Nc4ccc(N5CCN(CCCCc6cccc7c6CN(C6CCC(=O)NC6=O)C7=O)CC5)cc4)n3)C2)C1=O (stereo partly shown) [Compound 17] | 1.59 | 3.14 | 2.92 | 1.06 | 1.05 | 1.34 | 1.23 | 1.11 | 1.12 | BTK Remaining (% relative to vehicle) (BTK; 10 mg/kg, 14 days of dosing): 20%; BTK Remaining (% relative to vehicle) (BTK; 30 mg/kg, 14 days of dosing): 15%; BTK Remaining (% relative to vehicle) (BTK; 30 mg/kg, 21 days of dosing): 7%; Tumor Growth Inhibition (relative to vehicle) (TMD8 tumor cells; 10 mg/kg, 14 days of dosing): 14%; Tumor Growth Inhibition (relative to vehicle) (TMD8 tumor cells; 30 mg/kg, 14 days of dosing): 66%; Tumor Growth Inhibition (relative to vehicle) (TMD8 tumor cells; 30 mg/kg, 21 days of dosing): 81%; EC50 (TMD8 cells; Homo sapiens, TMD8, 72 h): 0.6 nM; EMAX (% viable cells) (TMD8 cells; TMD8 cells, treatment time 72 h): 7%; EC50 (TMD8 C481S cells; Homo sapiens, TMD8, 72 h): 3.71 nM; EMAX (% viable cells) (TMD8 C481S cells; TMD8 C481S cells, treatment time 72 h): 15%
CN1CCN([C@@H]2CCCN(c3cnc(C(N)=O)c(Nc4ccc5c(c4)CCN(C4CN(c6ccc7c(c6)C(=O)N(C6CCC(=O)NC6=O)C7=O)C4)C5)n3)C2)C1=O (stereo partly shown) [Compound 30] | 1.59 | 3.82 | 3.95 | 1.01 | 1.01 | 1.14 | 1.10 | 1.17 | 1.16 | DC50 (Aiolos; Mino cells): 10 nM; DC50 (Aiolos; Rec-1 cells): 34 nM; DC50 (Ikaros; Mino cells): 1100 nM; DC50 (Ikaros; Rec-1 cells): 1000 nM; IL-2 secretion compared to baseline (anti-CD3/anti-CD28 stimulation alone) (primary human T cells [1]; primary human T cells): increased IL-2 secretion but not to the level observed with IMiDs; expression of CD25 and CD69 compared to baseline (anti-CD3/anti-CD28 stimulation alone) (primary human T cells [2]; primary human T cells): unchanged or decreased levels

Reference: patent US12600732B2, “Bifunctional compounds for degrading BTK via ubiquitin proteosome pathway” (NURIX THERAPEUTICS, INC., priority 2019, dated 2026)
